Results from PMC4972829, “Olfactory Receptors Modulate Physiological Processes in Human Airway Smooth Muscle Cells” (Frontiers in Physiology, 2016).
pEC50: −log10 of the molar value.

Legend:
OR2AG1 = target: T1, OR2AG1 (Homo sapiens, UniProt Q9H205); assay: fura-2 calcium imaging in native human airway smooth muscle cells; cAMP assay (text prints EC50 […], figure legend […]); assay type: cell-based
T1 sequence (Q9H205 1-316): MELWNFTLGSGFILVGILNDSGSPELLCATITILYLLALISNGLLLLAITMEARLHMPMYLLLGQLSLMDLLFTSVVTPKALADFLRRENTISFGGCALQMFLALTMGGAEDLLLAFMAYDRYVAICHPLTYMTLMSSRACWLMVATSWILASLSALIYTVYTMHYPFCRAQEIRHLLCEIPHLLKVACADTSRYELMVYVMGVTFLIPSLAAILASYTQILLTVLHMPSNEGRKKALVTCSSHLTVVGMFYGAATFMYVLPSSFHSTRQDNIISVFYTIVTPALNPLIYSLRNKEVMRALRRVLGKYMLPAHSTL

OR1D2 = target: T2, OR1D2 (Homo sapiens, UniProt P34982); assay: fura-2 calcium imaging in native human airway smooth muscle cells; blocked by OR1D2 antagonist undecanal; cAMP assay; assay type: cell-based
T2 sequence (P34982 1-312): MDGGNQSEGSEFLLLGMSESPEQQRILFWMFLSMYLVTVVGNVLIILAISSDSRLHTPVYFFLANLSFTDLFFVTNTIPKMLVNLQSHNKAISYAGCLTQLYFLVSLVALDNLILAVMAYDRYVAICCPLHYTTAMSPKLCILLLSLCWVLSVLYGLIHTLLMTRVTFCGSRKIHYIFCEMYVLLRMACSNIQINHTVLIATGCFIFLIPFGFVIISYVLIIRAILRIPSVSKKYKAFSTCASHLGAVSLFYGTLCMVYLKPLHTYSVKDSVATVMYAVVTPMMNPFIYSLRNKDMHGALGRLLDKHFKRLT

| pEC50 (OR2AG1) | pEC50 (OR1D2) | Compound |
| --- | --- | --- |
| 3.60 | – | CCCCCOC(=O)CCC [amyl butyrate] |
| – | 6.30 | CC(C)(C)c1ccc(CCC=O)cc1 [bourgeonal] |
